Key:
Type in all cases: physicochemical
[1] = T1/T2 relaxation MRI on Bruker Avance 400 MHz (9.4 T) microimaging system; conditions: measured simultaneously with the nanoparticles at 400 MHz; repeated
Experimental: The concentrations of our solutions are given in terms of silanized nanoparticle concentration and not in terms of Gd^3+ present in solution because the latter is attached to the nanoparticles. At 1 μM concentration, the average distance between nanoparticles is over 100 nm. We determined the concentration of the nanoparticle solution by measuring the UV-vis spectrum. […] We used the following numbers: QD exciton peak at approximately 610 nm, fluorescence emission at approximately 630 nm, full width at half-maximum (fwhm) of 38 nm, extinction coefficient used 620 000 M^−1cm^−1 following published reports (Yu, et al. (2003) Chem. Mater. 15: 2854-2860). […] These latter numbers were computed from the concentrations given by the manufacturer and the OD of citrate-stabilized Au colloids measured directly out of the bottle.
(§1) All MRI experiments were performed on a Bruker Avance 400 MHz (9.4 T) spectrometer equipped with a high-resolution Micro5 microimaging system with a 25 mm RF coil. […] We also obtained quantitative evaluation of the longitudinal relaxation times, T1, by plotting M/Mo versus log(τ), that is, the residual magnetization as a function of the recovery time. T1 values were measured by fitting M(τ)/Mo to an single-exponential growth curve: (M(τ)/Mo)=(1−[…]). Transverse relaxation times were determined by a plot of log-(M/Mo) versus τ. […]

[2] = T1 and T2 relaxation time measurements on Bruker Minispecs at 20 and 60 MHz; conditions: 20-100 MHz; comparison line
Source text: After extensive purification from unbound Gd-DOTA, these samples were chemically analyzed by inductively coupled plasma mass spectrometry (ICP-MS) by measuring the total amount of Gd and Cd or Au ions. By assuming bulk parameters of the CdSe or Au lattice and the size of the nanoparticles (using tabulated values linking the size of the QDs to its optical properties, or the claimed size for Au nanocrystals), we deduced the number of Gd per silanized nanoparticle. The number of Gd^3+ […] SiO2-coated nanoparticle varied from 3 to greater than 300 and depends on the size of the initial nanoparticles and the conditions used during the conjugation of Gd-DOTA to the silanized nanoparticles. Notice that the same samples were used for MRI study and ICP-MS analysis.
T1 and T2 relaxation time measurements were performed on Bruker Minispecs operating at 1H resonance frequencies of 20 and 60 MHz. An inversion recovery pulse sequence was employed for T1 relaxation time measurements using a monoexponential fit to the recovery curve. For each experiment, 4 scans were collected with a recycle delay of 15 s. To obtain the recovery curve, 50 evenly spaced points were collected with the first point acquired at 5 ms. […]
(§2) The T2 times were calculated from a monoexponential fit to a spin echo decay curve using a Carr-Purcell-Meiboom-Gill (CPMG) pulse sequence. […]

[3] = Relaxivities summarised over the field strengths investigated or without stated field; conditions: three field strengths investigated
Experimental: T1 and T2 relaxation time measurements were performed on Bruker Minispecs operating at 1H resonance frequencies of 20 and 60 MHz. An inversion recovery pulse sequence was employed for T1 relaxation time measurements using a monoexponential fit to the recovery curve. For each experiment, 4 scans were collected with a recycle delay of 15 s. To obtain the recovery curve, 50 evenly spaced points were collected with the first point acquired at 5 ms. The last time point was collected at 4000 ms for short T1 samples and 10,000 ms for samples with long T1 so that each sample was allowed to fully recover. The receiver gain for each sample was set so that the signal amplitude was approximately 60%.
as §2, §1

[4] = Gd3+ release from DOTA, colorimetric Arsenazo test; conditions: several weeks
Experimental: The synthesis of Gd-DOTA (i.e., one Gd3+ ion chelated by DOTA) was performed according to a procedure adapted from previous reports (Wang et al. (1992) Inorg. Chem. 31: 1095-1099; Prantner et al. (2003) Mol. Imaging 2: […]). We dissolved p-NH2-Bn-DOTA (2-(4-aminobenzyl)-1,4,7,10-tet-raazacyclododecane-1,4,7,10-tetraacetic acid) in water and add an aqueous solution of GdCl3 (Sigma-Alrich), so as to have a 1:0.98 molar mixture of DOTA/Gd3+ and approximately 0.2 M concentration in DOTA. The solution was heated a few minutes to 80° C. to favor coordination of Gd3+ with the tetraazacy-clododecane ring. The pH of the solution droped below 1. We brought the pH to 3.5-4 by adding aliquots of 7 M NaOH and heat the solution back to 80° C. for a few minutes. At this early stage, heating produces acidification of the solution. […] At that stage, the solution was kept at 80° C. for 3 h. Completion of the Gd^3+ chelation was confirmed by a colorimetric assay using Arsenazo dye (Sigma-Alrich). This colorimetric dye reacts to the presence of unbound or free Gd^3+. The dye natural color is purple, but if it binds to Gd^3+ its color turns to blue. […] The stability of the Gd-DOTA has been studied using the colorimetric Arsenazo test.

## Gd-DOTA
[1]
  r1 Gd^3+ ion relaxivity of unbound Gd-DOTA: 3.7 ± 0.04 mM⁻¹ s⁻¹
  r2 Gd^3+ ion relaxivity of unbound Gd-DOTA: 3.8 ± 0.2 mM⁻¹ s⁻¹
[2]
  r1 Gd^3+ ion relaxivity of unbound Gd-DOTA: 3 to 5 mM⁻¹ s⁻¹
[3]
  relaxivities of unbound Gd-DOTA: 3 to 12 mM⁻¹ s⁻¹
[4]
  Gd^3+ release from the DOTA ring: No Gd^3+ release

From US20100183504A1, “MULTIMODAL IMAGING PROBES FOR IN VIVO TARGETED AND NON-TARGETED IMAGING AND THERAPEUTICS” (priority 2007, published 2010)
